Data: patent US20190060384A1, “COMPOSITION FOR TREATMENT OR PREVENTION OF LUNG CANCER AND A METHOD THEREFORE” (priority 2017, published 2019)

Tests used:
[1] = mouse, in vivo, po
From the text: (§1) Day 28; mortality, clinical symptoms, change in body weight, autopsy findings, hematological (14 items; Table 18) and hematochemical (20 items; Table 19) changes, histopathological changes (23 organs: brain cerebrum, cerebellum and bulbar, heart, thymus, lung, testis, epididymis, kidney, adrenal gland, spleen, liver, pancreas, alimentary tract esophagus, fundic portion, pyloric portion, duodenum, jejunum, ileum, cecum, colon and rectum, submandibular lymph node), and changes in content of liver lipid peroxidation and antioxidant defense system glutathione (GSH), and catalase (CAT) and superoxide dismutase (SOD) activities.

NCI-H520 tumor mass = experiment: NCI-H520 xenograft nude mice: tumor mass histopathology and immunohistochemistry; assay type: in vivo, athymic nude mice
From the text: (1) Anticancer effects: Changes in tumor volume, tumor weight, tumor cell volume in a formed mass, and apoptotic cell percentages, and changes in immunoreactivities of caspase-3, PARP, NT, 4-HNE, CD31, Ki-67, COX-2, iNOS, and TNF-α in the formed mass

[2] = Pharmacokinetics of gefitinib after repeated oral Lonicera flos; assay type: in vivo, Sprague-Dawley rats; settings: for concentration at 0.5 h: 0.50 h; for AUC(0-t) / Cmax / Tmax / half-life: po, average
[3] = male, ICR, mouse, in vivo, po, 28 days
From the text: as §1

[4] = tested on: NCI-H520 cell xenograft nude mice; experiment: NCI-H520 xenograft nude mice: serum IL-6 and IFN-γ contents; assay type: in vivo, athymic nude mice; settings: vs tumor xenograft control, 35 days
From the text: (3) Effects of suppressing tumor-related cachexia: Changes in body weight, periovarian fat pad weight, and serum IL-6 content and histological change in a periovarian fat pad

[5] = tested on: NCI-H520 cell xenograft nude mice; experiment: NCI-H520 xenograft nude mice: immune organ weights and histopathology (spleen, submandibular lymph node); assay type: in vivo, athymic nude mice; settings: NCI-H520 xenograft nude mice, oral once daily 35 days
[6] = tumor mass, oral once daily 35 days
[7] = male, Sprague-Dawley, rat, plasma, oral, 10 mg/kg, gefitinib 10 mg/kg oral, control (saline) rats
[8] = male, Sprague-Dawley, rat, plasma, oral, gefitinib 10 mg/kg oral after Lonicera flos 300 mg/kg oral 15 days
[9] = male, Sprague-Dawley, rat, plasma, 10 mg/kg, gefitinib 10 mg/kg oral, Control
[10] = male, Sprague-Dawley, rat, plasma, 10 mg/kg, gefitinib 10 mg/kg oral, Lonicera japonica group (15 days pre-treatment)

## COc1cc2ncnc(Nc3ccc(F)c(Cl)c3)c2cc1OCCCN1CCOCC1 [Gefitinib, gefitinib]
[1]
  ALB: 1.39 ± 0.25a g/dL
  ALP: 107.00 ± 22.41 IU/L
  ALT: 215.00 ± 33.87d IU/L
  AST: 29.014 ± 23.57d IU/L
  BIL: 0.14 ± 0.05 mg/dL
  BUN: 18.19 ± 0.89 mg/dL
  CRE: 0.39 ± 0.18 mg/dL
  GLU: 92.43 ± 7.93 mg/dL
  Globulin: 3.73 ± 0.39a g/dL
  K: 9.97 ± 0.25 mmol/L
  PRO: 5.11 ± 0.19 g/dL
  TG: 195.71 ± 47.00 mg/dL
NCI-H520 tumor mass; [6]
  Immunoreactive cell percentages: 4-hydroxynonenal: 29.12 ± 8.55a %/tumor cells
  Immunoreactive cell percentages: CD31: 29.90 ± 5.37a %/tumor cells
  Immunoreactive cell percentages: Cleaved caspase-3: 25.77 ± 5.73d %/tumor cells
  Immunoreactive cell percentages: Cyclooxygenase-2: 56.48 ± 12.30 %/tumor cells
  Immunoreactive cell percentages: INOS: 5.34 ± 1.44 %/tumor cells
  Immunoreactive cell percentages: Ki-67: 45.34 ± 7.63a %/tumor cells
  Immunoreactive cell percentages: Nitrotyrosine: 32.93 ± 10.64d %/tumor cells
  Immunoreactive cell percentages: PARP: 22.27 ± 10.20d %/tumor cells
  Tumor cell volume: 54.48 ± 12.96a %/mm2
NCI-H520 tumor mass; vs tumor xenograft control
  change in proportion of the tumor tissue occupied by 4-HNE immunoreactive cells: 928.20%
  change in proportion of the tumor tissue occupied by CD31 immunoreactive cells: −41.30%
  change in proportion of the tumor tissue occupied by COX-2 immunoreactive cells: 6.37%
  change in proportion of the tumor tissue occupied by Ki-67 immunoreactive cells: −41.57%
  change in proportion of the tumor tissue occupied by NT immunoreactive cells: 368.85%
  change in proportion of the tumor tissue occupied by PARP immunoreactive cells: 673.85%
  change in proportion of the tumor tissue occupied by TNF-α immunoreactive cells: 417.98%
  change in proportion of the tumor tissue occupied by caspase-3 immunoreactive cells: 364.72%
  change in proportion of the tumor tissue occupied by iNOS immunoreactive cells: −11.83%
  change in proportion of the tumor tissue occupied by tumor cells: −30.68%
[2]; [7]
  concentration at 0.5 h: 703 ng/mL
  concentration at 1 h: 805 ng/mL
  concentration at 3 h: 762 ng/mL
  concentration at 7 h: 824 ng/mL
  concentration at 10 h: 439 ng/mL
  concentration at 24 h: 70 ng/mL
[2]; [8]
  concentration at 0.5 h: 571 ng/mL
  concentration at 1 h: 645 ng/mL
  concentration at 3 h: 531 ng/mL
  concentration at 7 h: 579 ng/mL
  concentration at 10 h: 430 ng/mL
  concentration at 24 h: 53 ng/mL
[2]; male, Sprague-Dawley, rat, plasma, oral, gefitinib 10 mg/kg oral after Lonicera flos 300 mg/kg oral 15 days, […]
  concentration at […]: 274 ng/mL
[2]; [9]
  AUC(0-t): 10800 ng·h/mL
  Cmax: 921 ng/mL
  Tmax: 3.55 h
  half-life: 5.05 h
[2]; [10]
  AUC(0-t): 8740 ng·h/mL
  Cmax: 736 ng/mL
  Tmax: 2.89 h
  half-life: 4.84 h
[2]; orally administered, rats
  time of maximum plasma concentration after administration: about 4 hours
[3]
  Autopsy: Liver Discolorization: 7/7
  Autopsy: Liver Discolorization 1+: 0/7
  Autopsy: Liver Discolorization 2+: 1/7
  Autopsy: Liver Discolorization 3+: 6/7
  Autopsy: Liver Normal: 0/7
  Autopsy: Lung Congestion: 2/7
  Autopsy: Lung Congestion 1+: 2/7
  Autopsy: Lung Normal: 5/7
  Autopsy: Lymph nodes Hypertrophy: 7/7
  Autopsy: Lymph nodes Hypertrophy 1+: 0/7
  Autopsy: Lymph nodes Hypertrophy 2+: 4/7
  Autopsy: Lymph nodes Hypertrophy 3+: 3/7
  Autopsy: Lymph nodes Normal: 0/7
  Autopsy: Others Normal: 7/7
  Autopsy: Spleen Hypertrophy: 7/7
  Autopsy: Spleen Hypertrophy 1+: 0/7
  Autopsy: Spleen Hypertrophy 2+: 4/7
  Autopsy: Spleen Hypertrophy 3+: 3/7
  Autopsy: Spleen Normal: 0/7
[4]
  change in serum IFN-γ content: −0.62%
  change in serum IL-6 content: 2.09%
[5]
  Spleen Total thickness: 1097.00 ± 237.39a μm/central regions
  Spleen White pulp diameters: 334.72 ± 47.47e μm/white pulp
  Spleen White pulp numbers: 6.13 ± 1.81e /mm2
  Spleen absolute weight: 0.059 ± 0.010a
  Submandibular lymph node Cortex lymphoid cell follicle numbers: 7.50 ± 2.39a /mm2
